The values below come from patent US20220323379A1, “P62 LIGAND COMPOUND AND ER-PHAGY-PROMOTING USE THEREOF” (PROTECH, INC., priority 2019, published 2022).

Test [1] concerns the target T1, TRIM13-p62 complex (Homo sapiens, UniProt Q13501).
T1 construct: PCR amplification of a full-length human p62 cDNA fragment; expressed in transfected cells; host or cells: HEK293T
The test can be described thus: Co-IP with autophagy flux analysis using TRIM13 pulldown. The note with it: HEK293T p62-myc + TRIM13-flag. Format: cell-based. How it is done:
FIG. 4I illustrates the Co-IP assay results in HEK293T cells treated with HCQ (10 μM, 24 h), tannic acid (30 μM, 24 h), or both, and co-transfected (24 h) with p62-myc and TRIM13-flag,
FIG. 5K illustrates the Co-IP assay results in HEK293T cells co-transfected with p62-myc and TRIM13-flag (24 h) or transfected with negative control empty vector (EV) and treated with HCQ (10 μM, 24 h), YOK1104 (2.5 μM, 4 h), or both, and
To test protein interaction, co-immunoprecipitation assays were performed. For exogenous co-IP, HEK293T cells were transfected with recombinant p62, BiP, TRIM13, reticulophagy regulator 1 (FAM134B), reticulon 3 (RTN3) or ATZ (Z variant E342K) using Lipofectamine 2000. The cell pellets were scraped and pelleted by centrifugation, resuspended and lysed in an immunoprecipitation buffer (IP buffer) [50 mM Tris-HCl pH 7.5, 150 mM NaCl, 0.5% Triton X-100, 1 mM EDTA, 1 mM phenylmethylsulfonyl fluoride (PMSF; Roche) and protease inhibitor cocktail (Sigma)] on a rotor at 4° C. for 30 min. Next, the supernatant and remaining pellets were passed through a 26-gauge 1 mL syringe 15 times and centrifuged at 13,000 g at 4° C. and collected for the supernatant, to which normal mouse IgG (Santa Cruz) and Protein A/G-Plus agarose beads (Santa Cruz) were added to preclear the lysate on a rotor at 4° C. overnight. The cell lysate was then incubated with M2 FLAG-affinity Gel agarose beads (Sigma) on a rotor at 4° C. for 3 h. The gel beads were washed four times with IP buffer, resuspended in 2× Laemmli Sample Buffer, separated by SDS-PAGE and analyzed by immunoblotting with specified antibodies.

Test [2] deals with HeLa cells. The test is described as follows: ER expansion visualization by KDEL immunostaining. The test is classed as cell-based, human. The note with it: tannic acid 30 μM 24 h with YTK1105 2.5 μM 5 h or rapamycin 2 μM 18 h, FIGS. 5H, 5I. As for the experimental part:
FIG. 5H illustrates the immunostaining results of KDEL signals in HeLa cells treated with or without tannic acid (30 μM, 24 h) and with YTK1105 (2.5 μM, 5 h) or rapamycin (2 μM, 18 h) (scale bar, 10 μm),
To observe cellular localization of proteins, cells were cultured on cover slips coated with poly-L-lysine (Sigma). The cells were fixed with 4% paraformaldehyde in PBS (pH 7.4) for 15 min at room temperature and washed three times with PBS for 5 min. The cells were permeabilized with 0.5% Triton X-100 in PBS solution for 15 min and washed three times with PBS for 5 min. The cells were blocked with 2% BSA in PBS solution for 1 h at room temperature. After blocking, the cells were incubated overnight at 4° C. with a primary antibody diluted in 2% BSA/PBS solution. […] Confocal images were taken by a laser scanning confocal microscope 510 Meta (Zeiss) and analyzed by Zeiss LSM Image Browser (ver. 4.2.0.121).
Using confocal microscopy of cells analyzed by immunocytochemistry, ER expansion was visualized by considered when KDEL- or calnexin-labelled ER occupied more than 80% of cell area. Furthermore, the ER area was calculated by ImageJ (NIH, Bethesda, v1.52) and the background threshold was manually defined and set for all images. The ER area was calculated and marked from the total cell area as a fraction after borders of each cell were set.

The test system of test [3] is TRIM13. The test is described as follows: In vivo oligomerization assay of TRIM13-flag (non-reducing SDS-PAGE). Format: cell-based, human. How it is done:
FIG. 4H illustrates the in vivo oligomerization assay results of TRIM13-flag in HEK293T cells treated with HCQ (10 μM, 24 h), tannic acid (30 μM, 24 h), or both,
FIG. 5L illustrates the In vivo oligomerization assay results of TRIM13-flag in HEK293T cells treated with MG132 (2 μM, 24 h) and with or without YOK1104 (2.5 μM, 4 h).
HEK293T cells were transfected with TRIM13-flag using Lipofectamine 2000 and treated with hydroxychloroquine (Sigma) for 24 h. To lyse the cells, the cells were subjected to a cycle of freezing/thawing and centrifuged at 13,000 g for 10 min after 30 min incubation on ice for supernatant collection. Protein concentration was measured using the Pierce BCA Protein Assay Kit (Thermo Fisher Scientific). Next, a non-reducing 4×LDS sample buffer was added to the sample lysate and followed by boiling at 100° C. for 10 min. The samples were loaded on a 3% stacking and 8% separating SDS-PAGE. Immunoblotting assays were performed using an anti-Flag antibody (Sigma) to visualize the oligomeric complexes of TRIM13.

Test [4] relates to HeLa cells. The test can be described thus: Immunocytochemistry co-localization analysis of ER markers (calnexin, KDEL) with p62 and LC3. The test is classed as cell-based, human. The note with it: tannic acid 30 μM 24 h, HCQ 10 μM 24 h. As for the experimental part:
FIG. 2C is a fluorescence image illustrating the co-localization analysis results of p62 and calnexin in HeLa cells treated with HCQ (10 μM, 24 h), tannic acid (30 μM, 24 h) or both (scale bar, 10 μm),
FIG. 2E is a fluorescence image illustrating the co-localization analysis results of KDEL and LC3 in HeLa cells treated with HCQ (10 μM, 24 h), tannic acid (30 μM, 24 h) or both (scale bar, 10 μm),
FIG. 5C is a fluorescence image illustrating the co-localization analysis results of calnexin, p62 and LC3-GFP puncta structures in HeLa cells transfected with LC3-GFP and treated with YTK1105 (2.5 μM, 9 h) (scale bar, 10 μm),
FIG. 11E illustrates the co-localization analysis results of p62, KDEL and LC3-GFP in HeLa cells transiently transfected with LC3-GFP and treated with YTK1105 (2.5 μM, 5 h) (scale bar, 10 μm), […]
To observe cellular localization of proteins, cells were cultured on cover slips coated with poly-L-lysine (Sigma). […] Confocal images were taken by a laser scanning confocal microscope 510 Meta (Zeiss) and analyzed by Zeiss LSM Image Browser (ver. 4.2.0.121).
Quantification results are expressed as the mean+/−S.D. value of three independent test results. […] The P-values were determined using ANOVA with two-tailed student's t-test (degree of freedom=n−1) or Prism 6 software (GraphPad). The statistical significance was determined as values of p<0.05 (***p<0.001; **p<0.01; *p<0.05).

Test [5] concerns TRIM13. The test is described as follows: Immunoblotting of ER protein in tannic acid-treated cells. The test is classed as cell-based, human. Conditions: HeLa, tannic acid 30 μM 24 h; FIG. 8E. As for the experimental part:
FIG. 8E illustrates the immunoblotting results of ER protein in HeLa cells treated with tannic acid (30 μM, 24 h),
(§1) Cell pellets were washed with phosphate-buffered saline (PBS) and lysed in an SDS-based sample buffer (277.8 mM Tris-HCl, pH 6.8, 4.4% LDS, 44.4% (v/v) glycerol) with beta-mercaptoethanol. Alternatively, cell pellets or protein supernatants were lysed in a 5× Laemmli sample buffer (SDS-based sample buffer). Using SDS-PAGE, whole cell lysates were separated and transferred onto polyvinylidene difluoride membranes at 100 V for 2 h at 4° C. Subsequently, the membrane was blocked with 4% skim milk in PBS solution for 30 min at room temperature and incubated overnight with primary antibodies (see Reference Example 4), followed by incubation with host-specific HRP-conjugated secondary antibodies (Jackson laboratory) (1:10000 dilution). For signal detection, a mixture of ECL solution (Thermo Fisher Scientific) was applied onto the membrane and captured using X-ray films.

Test [6] deals with TRIM13. The test is described as follows: Autophagy flux assay of TRIM13-flag with bafilomycin A1. The test is classed as cell-based, human. Conditions: HeLa TRIM13-flag, 2.5 μM 4 h, with or without bafilomycin A1 200 nM 6 h; FIG. 11M. As for the experimental part: FIG. 11M illustrates the Western blotting results of HeLa cells transfected with TRIM13-flag or negative control empty vector (EV), treated with YOK1104 (2.5 μM, 4 h), and treated with or without bafilomycin A1 (200 nM, 6 h),
as §1

Test [7] deals with HEK293T cells. The test is described as follows: Transmission electron microscopy of treated cells. Format: cell-based, human. Conditions: 2.5 μM, 6 h vs DMSO, FIG. 5E. As for the experimental part: FIG. 5E is a transmission electron microscopy image of HEK293T cells treated with YOK1104 (2.5 μM, 6 h) or DMSO (control), where arrows indicate autolysosomes and asterisks indicate ER fragments inside autolysosomes (scale bars, 500 nm (1st & 2nd column), 200 nm (3rd column)),
For conventional transmission electron microscopy, HEK293T cells were treated with 2.5 μM YOK1104 for 6 h, scraped from culture dish and pelleted by centrifugation. The pellets were resuspended in 2.5% glutaraldeyhyde in 0.1 M sodium cacodylate buffer (pH 7.4) (Electron Microscopy Sciences) for overnight at 4° C. The fixative was replaced by a cacodylate buffer for the last 6 h, after which the cells were embedded in Epon resin. Subsequently, the cells were cut into 55-nm sections and stained with uranyl acetate and lead citrate using the Reichert Ultracut S Ultramicrotome (Leica Microsystems) and FEI Vitrobot Mark IV (Thermo Scientific), respectively. The cell sections were observed using the 200 kV transmission electron microscope FEI Tecnai G2-F20 (Thermo Scientific).

For test [8], the system named is BiP, PDI, TRIM13. The test can be described thus: Immunoblotting of ER proteins under proteotoxic ER stress. Format: cell-based, human. Conditions: HeLa, MG132 2 μM 24 h, YOK1104 2.5 μM 4 h; FIG. 5F. How it is done: FIG. 5F illustrates the immunoblotting analysis results of HeLa cells treated with MG132 (2 μM, 24 h), YOK1104 (2.5 μM, 4 h), or both,
as §1
For orientation: In western blotting, separated proteins are transferred to a membrane and probed.

For test [9], the system named is HeLa cells. The test can be described thus: Western blotting of ER stress and apoptosis in tannic acid-treated cells. The note with it: tannic acid 30 μM 24 h, YTK1105 5 μM 9 h, HCQ 10 μM 24 h, FIG. 5G. The test is classed as cell-based, human. How it is done:
FIG. 5G illustrates the Western blotting analysis results of HeLa cells treated with HCQ (10 μM, 24 h), YTK1105 (5 μM, 9 h), or both in the presence or absence of tannic acid (30 μM, 24 h),
as §1

Entries after “also recorded” stand apart in the source; their conditions may differ.

With `O=C(OC[C@H]1O[C@@H](OC(=O)c2cc(O)c(O)c(OC(=O)c3cc(O)c(O)c(O)c3)c2)[C@H](OC(=O)c2cc(O)c(O)c(OC(=O)c3cc(O)c(O)c(O)c3)c2)[C@@H](OC(=O)c2cc(O)c(O)c(OC(=O)c3cc(O)c(O)c(O)c3)c2)[C@@H]1OC(=O)c1cc(O)c(O)c(OC(=O)c2cc(O)c(O)c(O)c2)c1)c1cc(O)c(O)c(OC(=O)c2cc(O)c(O)c(O)c2)c1` [tannic acid], the “turnover of TRIM13 and its complex with p62” value in [1] (tannic acid 30 μM 24 h, HCQ 10 μM 24 h, FIG. 4I) is “became metabolically stabilized”. Further, the “binding of p62 to TRIM13” value in test [1] (tannic acid 30 μM 24 h, FIG. 4I) was “p62 normally bound to TRIM13”. For the same compound, the “ER morphology (swelling), KDEL signals” value in [2] was “the ER spontaneously swelled into abnormal morphology”. The “oligomeric status of TRIM13” value in test [3] (HEK293T TRIM13-flag, tannic acid 30 μM 24 h, HCQ 10 μM 24 h, FIGS. 4H, 9L) was “TRIM13 lost its oligomeric status, leading to the uncontrolled formation of aggregates”. The “localization of p62 puncta to calnexin signals (targeting of p62 to the ER)” value in test [4] (FIGS. 2C, 2D) was “p62 punctate signals were delocalized from calnexin signals”. Further, the “autophagic targeting of KDEL+ proteins (KDEL-LC3 co-localization)” value in test [4] (FIGS. 2E, 2F) was “abolished”. In addition, the “TRIM13 protein level (autophagic degradation)” value in test [5] is reported as “stabilized”.
Take `CC(C)NC[C@@H](O)COc1ccc(OCc2ccccc2)c(OCc2ccccc2)c1` [YOK1104, (R)-1-(3,4-bis(benzyloxy)phenoxy)-3-(isopropylamino)propan-2-ol]: the “autophagic degradation of the TRIM13-p62 complex” value in [1] (YOK1104 2.5 μM 4 h, HCQ 10 μM 24 h, FIG. 5K) is reported as “enhanced autophagic degradation of the TRIM13-p62 complex”. In addition, the “autophagic degradation of TRIM13” value in [6] is reported as “drove TRIM13 to autophagic degradation”. Also, the “degradation of oligomeric vs monomeric species of TRIM13” value in [3] (HEK293T, MG132 2 μM 24 h, YOK1104 2.5 μM 4 h, FIG. 5L) is reported as “selectively induced the degradation of oligomeric species but not that of monomeric species of TRIM13”. For the same compound, in test [7], the “delivery of ER compartments to autolysosomes; autophagosomes and autolysosomes by transmission electron microscopy” value was “readily exhibited an abundance of autophagosomes and autolysosomes; also recorded: displayed the accumulation of ER fragments within their interior”. In addition, the “degradation of BiP, PDI and TRIM13 following up-modulation by proteotoxic ER stress” value in test [8] is “readily facilitated the degradation of BiP and PDI as well as TRIM13”.
As to `Cl.OCCNCc1ccc(OCc2ccccc2)c(OCc2ccccc2)c1` [YTK1105, 2-((3,4-bis(benzyloxy)benzyl)amino)ethan-1-ol hydrochloride], the “ER morphology (swelling), KDEL signals” value in test [2] is listed as “readily restored”. Further, in test [9], the “rescue from ER stress and apoptosis” value was “rescued tannic acid-treated cells from ER stress and apoptosis in an autophagy-dependent manner”.
